Results: patent US11618761B2, “Phosphonium ion channel blockers and methods for use” (Nocion Therapeutics, Inc., priority 2019, dated 2023)
Where a name gives a salt, the structure may show the parent alone.

Columns and labels:
[1] = PAMPA membrane permeability assay; type: in vitro ADME; settings: pH 7.4 buffer, GIT lipid, 4 hours incubation, 50 uM
Description: The PAMPA assay (pION, Inc., Woburn Mass.) was used to determine the ability of compounds of the invention to cross an artificial lipid membrane by passive diffusion. Test compounds were dissolved in DMSO (10 mM) and diluted 200-fold in buffer (pION Inc., pH 7.4) to provide 50 uM stock solutions. Buffer (150 μL) was added to a UV blank plate and stock solutions (150 μL) were transferred to a UV reference plate. The blank and reference spectrum were read using a spectrophotometer. Stock solutions (200 μL) were added to the donor plate of the PAMPA sandwich plate and an accept plate painted with GIT lipid (pION Inc, 5 μL) was placed on top. Buffer (200 μL) was added to the acceptor plate and the PAMPA sandwich plate was incubated for 4 hours. Aliquots (150 μL) from the acceptor plate were added to a UV plate and read as acceptor spectrum. Aliquots (150 μL) of the donor solutions were added to a UV analysis plate and read as donor spectrum. The permeability coefficient of test compounds was calculated using PAMPA Explorer™ software (version 3.5.0.4) based on the AUC of the reference plate, the donor plate, and the acceptor plate.

NaV1.7 [2] = biological target: T1, NaV1.7 (Homo sapiens, UniProt Q15858); experiment: Whole cell patch clamp, internal block of NaV1.7 current (compound in internal solution); type: cell-based; settings: compound applied internally, 5 Hz stimulation, read-out: Nav1.7 Intracellular Inhibition; for inhibition at 10 µM: % inhibition at 10 μM test concentration; for inhibition at 3 µM: % inhibition at 3 μM test concentration
T1 construct: expressed in transfected cells; tetracycline-inducible, kept under hygromycin and blasticidin selection
Description: (§1) NaV1.7 was expressed upon induction with tetracycline. Cells were cultured in DMEM containing 10% dialyzed Fetal Bovine Serum (VWR, Radnor, Pa.), 1% Glutamax (VWR, Radnor, Pa.), 1% Penicillin-Streptomycin (VWR, Radnor, Pa.), 100 mg/L Hygromycin (Thermo Fisher Scientific, Waltham, Mass.) and 5 mg/L Blasticidin (Alfa Aesar, Haverhill, Mass.). Cells were grown and maintained at 37° C. in a humidified environment containing 10% CO2 in air. Cells were detached from the culture flask for passage and harvested using 0.05% Trypsin-EDTA (Thermo Fisher Scientific, Waltham, Mass.). To induce NaV1.7, cells were induced with tetracycline (0.1-1 μg/mL, IBI Scientific, Peosta, Iowa) the day before recording and plated onto 24-well plates. Cells were washed with DPBS (VWR, Radnor, Pa.), trypsinized and then triturated five times in 10 mL of growth media to break apart cell aggregates. For one 24-well plate, 2 mL of cell suspension was mixed with 23 mL of fresh growth media and 0.1-1 μg/mL tetracycline added. 1 ml of mixed media with cells was then added to each well of a 24-well plate, with a 12 mm coverslip already placed in the bottom of the well. Cells were then incubated in 37° C. and 10% CO2 overnight.
The intracellular solution contained the following (in mM) CsCl 135, NaCl 10, EGTA 10, HEPES 10, MgCl2 2, adjusted to pH 7.2 with CsOH. The external solution was a normal Ringer solution containing (in mM) NaCl 155, HEPES 10, glucose 10, KCl 3.5, CaCl2) 1.5, MgCl2 1 adjusted to pH 7.4 with NaOH. CsCl was from Alfa Aesar, Haverhill, Mass. All other chemicals were from Sigma-Aldrich, St. Louis, Mo. In order to test the degree of internal block by test compounds the compounds were dissolved in internal solution at the indicated test concentration. […] In order to test the degree of external block by test compounds the compounds were dissolved in external solution at the indicated test concentration.
18-24 hours after cells were induced with tetracycline, coverslips were placed into a chamber filled with Normal Ringer solution at room temperature and the chamber was placed on a microscope. Pipettes were pulled from borosilicate glass on a P97 puller (Sutter Instrument, Novato, Calif.) and were polished with a MF-830 Microforge (Narishige International USA, Inc, Amityville, N.Y.) to have a resistance of 1.5-2.5 MΩ when filled with CsCl internal solution at room temperature. Healthy cells (those that are round and translucent with no visible blemishes) were chosen for seal formation. A seal was formed between the pipette and the cell, and a brief pulse of suction was used to “break in” and establish the whole-cell configuration. The membrane potential was held at −100 mV before the voltage protocol begins. Only cells with series resistance between 1.5-5 MΩ were retained for analysis. The voltage protocol was as follows: Cells were held at −100 mV for 12 ms followed by a hyperpolarizing step to −105 mV for 12 ms to monitor the leak. Cells were then stepped back to −100 mV for 40 ms. Cells were then depolarized to −20 mV for 10 ms and then returned to −100 mV for 26 ms (the FIGURE).
Once the recording was started, the voltage protocol was run at 30 second intervals for 5 minutes to get a stable baseline. This was followed by four 30-second periods of 5 Hz stimulation of the same voltage protocol separated by 1 minute of rest which was then followed by 0.33 Hz stimulation after the last train. Currents were recorded using PatchMaster software with Heka EPC10 (HEKA Electronics, Lambrecht, Germany). Only cells with inward current amplitudes at −20 mV between 400 pA and 4 nA were accepted. In addition, cells having leak currents greater than 10% of their current amplitudes were discarded.
(§2) The data was plotted using the Patchmaster software (HEKA Electronics, Lambrecht, Germany) and was analyzed by plotting the minimum current during the voltage step to −20 mV (peak inward current) as a function of time. […]

NaV1.7 [3] = biological target: T1, NaV1.7; experiment: Whole cell patch clamp, external block of NaV1.7 current (compound in external solution); type: cell-based; settings: % inhibition at 10 μM test concentration, compound applied externally for 5 minutes; read-out: Nav1.7 Extracellular Inhibition
Description: as §1, with “For one 24-well plate, 2 mL of cell suspension was mixed with 23 mL of fresh growth media and 0.1-1 μg/mL tetracycline added. 1 ml of mixed media with cells was then added to each well of a 24-well plate, with a 12 mm coverslip already placed in the bottom of the well. Cells were then incubated in 37° C. and 10% CO2 overnight.” left out
Once the recording was started, the voltage protocol was run at 30 second intervals for 5 minutes to get a stable baseline. […] Currents were recorded using PatchMaster software with Heka EPC10 (HEKA Electronics, Lambrecht, Germany). […]
as §2

T1 sequence (Q15858 whole entry): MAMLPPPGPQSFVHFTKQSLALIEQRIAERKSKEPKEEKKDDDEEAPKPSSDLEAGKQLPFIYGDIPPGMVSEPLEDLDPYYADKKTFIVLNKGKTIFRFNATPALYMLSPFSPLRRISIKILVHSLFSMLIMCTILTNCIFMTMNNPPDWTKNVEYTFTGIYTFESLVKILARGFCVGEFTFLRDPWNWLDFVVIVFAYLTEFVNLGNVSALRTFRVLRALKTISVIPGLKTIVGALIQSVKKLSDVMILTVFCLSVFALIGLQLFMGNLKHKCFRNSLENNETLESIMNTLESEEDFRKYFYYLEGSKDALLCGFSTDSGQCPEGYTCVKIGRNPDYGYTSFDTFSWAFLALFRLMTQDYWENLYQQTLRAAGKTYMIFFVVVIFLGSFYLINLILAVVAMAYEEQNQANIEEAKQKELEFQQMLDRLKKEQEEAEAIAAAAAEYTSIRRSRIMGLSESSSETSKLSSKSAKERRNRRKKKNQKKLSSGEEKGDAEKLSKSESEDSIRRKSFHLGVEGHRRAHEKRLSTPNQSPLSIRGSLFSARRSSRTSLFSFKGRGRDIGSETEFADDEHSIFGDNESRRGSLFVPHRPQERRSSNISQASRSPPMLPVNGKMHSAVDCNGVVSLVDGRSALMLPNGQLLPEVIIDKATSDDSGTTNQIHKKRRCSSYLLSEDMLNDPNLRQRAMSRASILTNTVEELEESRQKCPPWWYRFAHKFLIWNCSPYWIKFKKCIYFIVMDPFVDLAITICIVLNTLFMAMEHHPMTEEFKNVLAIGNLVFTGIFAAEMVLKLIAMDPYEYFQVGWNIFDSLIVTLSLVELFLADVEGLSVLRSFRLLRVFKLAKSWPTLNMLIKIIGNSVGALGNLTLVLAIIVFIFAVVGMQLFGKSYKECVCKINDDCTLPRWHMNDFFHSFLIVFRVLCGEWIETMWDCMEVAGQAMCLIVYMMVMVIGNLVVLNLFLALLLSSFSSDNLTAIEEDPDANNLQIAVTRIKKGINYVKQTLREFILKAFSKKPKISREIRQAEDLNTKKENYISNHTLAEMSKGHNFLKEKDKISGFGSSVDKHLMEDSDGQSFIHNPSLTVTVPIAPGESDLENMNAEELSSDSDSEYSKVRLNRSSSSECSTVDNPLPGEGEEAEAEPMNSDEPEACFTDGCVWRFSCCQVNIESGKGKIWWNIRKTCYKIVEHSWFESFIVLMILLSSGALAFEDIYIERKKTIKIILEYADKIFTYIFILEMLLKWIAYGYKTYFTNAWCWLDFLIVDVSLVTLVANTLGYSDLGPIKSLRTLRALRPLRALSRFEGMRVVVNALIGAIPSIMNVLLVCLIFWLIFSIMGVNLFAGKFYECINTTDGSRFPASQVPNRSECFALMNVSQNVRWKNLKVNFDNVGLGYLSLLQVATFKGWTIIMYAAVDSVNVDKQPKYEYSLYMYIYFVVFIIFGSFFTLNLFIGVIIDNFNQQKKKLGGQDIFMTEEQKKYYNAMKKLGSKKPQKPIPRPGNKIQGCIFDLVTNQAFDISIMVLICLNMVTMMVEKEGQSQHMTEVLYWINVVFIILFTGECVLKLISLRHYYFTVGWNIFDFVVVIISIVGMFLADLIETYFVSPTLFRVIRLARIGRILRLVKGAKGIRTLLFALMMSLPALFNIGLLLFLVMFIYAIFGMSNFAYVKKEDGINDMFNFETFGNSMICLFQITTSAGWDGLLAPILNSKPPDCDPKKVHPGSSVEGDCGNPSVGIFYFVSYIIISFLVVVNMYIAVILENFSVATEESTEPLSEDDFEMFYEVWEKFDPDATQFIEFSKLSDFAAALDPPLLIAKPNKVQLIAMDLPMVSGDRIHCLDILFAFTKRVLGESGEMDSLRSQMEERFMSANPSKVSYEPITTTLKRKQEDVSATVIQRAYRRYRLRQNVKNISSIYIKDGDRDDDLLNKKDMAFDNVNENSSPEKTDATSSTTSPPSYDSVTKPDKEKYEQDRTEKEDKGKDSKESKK

Structure (SMILES)	PAMPA (10^−6 cm/s) [1]	inhibition at 10 µM (NaV1.7 [2]) [%]	inhibition at 3 µM (NaV1.7 [2]) [%]	inhibition at 10 µM (NaV1.7 [3]) [%]
COC(=O)c1scc(C)c1NC(=O)C[P+]1(Cc2ccccc2)CCCCC1.[Br-] [Compound 8A, 1-benzyl-1-(2-((2-(methoxycarbonyl)-4-methylthiophen-3-yl)amino)-2-oxoethyl)phosphinan-1-ium Bromide]	++ (“++” (0.1-2.0 10^−6 cm/s))		70 to 90	
COC(=O)c1scc(C)c1NC(=O)C[P+]1(Cc2ccccc2)CCCCC1 [Compound 8]				< 40
CCC(C(=O)Nc1c(C)csc1C(=O)OC)[P+]1(Cc2ccccc2)CCCCC1 (stereo not drawn) [Compound 10A, 1-benzyl-1-(1-((2-(methoxycarbonyl)-4-methylthiophen-3-yl)amino)-1-oxobutan-2-yl)phosphinan-1-ium Formate]	+++. (“+++” (2.0-10.010^−6 cm/s))		> 90	
CCCC[P+](CCCC)(CCCC)CC(=O)Nc1c(C)csc1C(=O)OC.[Br-] [Compound 17A, tributyl(2-((2-(methoxycarbonyl)-4-methylthiophen-3-yl)amino)-2-oxoethyl) Phosphonium Bromide]	+ (“+” (<0.1 10^−6 cm/s))	70 to 95		
COC(=O)c1scc(C)c1NC(=O)C[P+](c1ccccc1)(c1ccccc1)c1ccccc1 [Compound 19A]		70 to 95		

The remaining lines, values ahead:

PAMPA (10^−6 cm/s) [1]	inhibition at 10 µM (NaV1.7 [2]) [%]	inhibition at 3 µM (NaV1.7 [2]) [%]	inhibition at 10 µM (NaV1.7 [3]) [%]	Structure (SMILES)
+ (“+” (<0.1 10^−6 cm/s))	40 to 70			CC[P+](CC)(CC)CC(=O)Nc1c(C)csc1C(=O)OC.[Br-] [Compound 1A, triethyl(2-((2-(methoxycarbonyl)-4-methylthiophen-3-yl)amino)-2-oxoethyl) Phosphonium Bromide]
+ (“+” (<0.1 10^−6 cm/s))		70 to 90		CC[P+](CC)(CC)CC(=O)Nc1c(C)csc1C(=O)OC(C)(C)C.[Br-] [Compound 21A]
